Tests used:
Experiment in all cases: KINOMEscan
Format in all cases: binding
[1] = biological target: MAP4K3 (Homo sapiens (Human), UniProt Q8IVH8); conditions: read-out: percent of control
Protocol: (§1) In vitro profiling of Compound I-2 (1 μM) was performed using the DiscoveRx KINOMEscan® platform.

[2] = biological target: PIK3CA(E545K) (Homo sapiens (Human), UniProt P42336, E545K); conditions: read-out: percent of control
Protocol: as §1

[3] = biological target: IRAK1 (Homo sapiens (Human), UniProt P51617); conditions: read-out: percent of control
Protocol: as §1

[4] = biological target: RSK1 (Kin.Dom.2-C-terminal) (Homo sapiens (Human), UniProt Q15418); conditions: read-out: percent of control
Protocol: as §1

[5] = biological target: CDC2L1 (Homo sapiens (Human), UniProt P21127); conditions: read-out: percent of control
Protocol: as §1

[6] = biological target: CDKL3 (Homo sapiens (Human), UniProt Q8IVW4); conditions: read-out: percent of control
Protocol: as §1

[7] = biological target: EPHB4 (Homo sapiens (Human), UniProt P54760); conditions: read-out: percent of control
Protocol: as §1

[8] = biological target: ABL1(H396P)-nonphosphorylated (Homo sapiens (Human), UniProt P00519, H396P); conditions: read-out: percent of control
Protocol: as §1

[9] = biological target: PKNB (M.tuberculosis) (Mycobacterium tuberculosis (strain ATCC 25618 / H37Rv), UniProt P9WI81); conditions: read-out: percent of control
Protocol: as §1

[10] = biological target: TIE2 (Homo sapiens (Human), UniProt Q02763); conditions: read-out: percent of control
Protocol: as §1

[11] = biological target: NDR1 (Homo sapiens (Human), UniProt Q15208); conditions: read-out: percent of control
Protocol: as §1

[12] = biological target: MAP4K5 (Homo sapiens (Human), UniProt Q9Y4K4); conditions: read-out: percent of control
Protocol: as §1

[13] = biological target: MTOR (Homo sapiens (Human), UniProt P42345); conditions: read-out: percent of control
Protocol: as §1

[14] = biological target: CDK7 (Homo sapiens (Human), UniProt P50613); conditions: read-out: percent of control
Protocol: as §1

[15] = biological target: PRKG1 (Homo sapiens (Human), UniProt Q13976); conditions: read-out: percent of control
Protocol: as §1

[16] = biological target: PIK3CA (Homo sapiens (Human), UniProt P42336); conditions: read-out: percent of control
Protocol: as §1

[17] = biological target: STK39 (Homo sapiens (Human), UniProt Q9UEW8); conditions: read-out: percent of control
Protocol: as §1

[18] = biological target: MRCKB (Homo sapiens (Human), UniProt Q9Y5S2); conditions: read-out: percent of control
Protocol: as §1

[19] = biological target: EPHB6 (Homo sapiens (Human), UniProt O15197); conditions: read-out: percent of control
Protocol: as §1

[20] = biological target: CSNK1E (Homo sapiens (Human), UniProt P49674); conditions: read-out: percent of control
Protocol: as §1

[21] = biological target: SIK2 (Homo sapiens (Human), UniProt Q9H0K1); conditions: read-out: percent of control
Protocol: as §1

[22] = biological target: CAMK1B (Homo sapiens (Human), UniProt Q6P2M8); conditions: read-out: percent of control
Protocol: as §1

[23] = biological target: ULK2 (Homo sapiens (Human), UniProt Q8IYT8); conditions: read-out: percent of control
Protocol: as §1

[24] = biological target: JAK1 (JH1domain-catalytic) (Homo sapiens (Human), UniProt P23458); conditions: read-out: percent of control
Protocol: as §1

[25] = biological target: PIK3CA(H1047Y) (Homo sapiens (Human), UniProt P42336, H1047Y); conditions: read-out: percent of control
Protocol: as §1

[26] = biological target: AMPK-alpha1 (Homo sapiens (Human), UniProt Q13131); conditions: read-out: percent of control
Protocol: as §1

[27] = biological target: CHEK1 (Homo sapiens (Human), UniProt O14757); conditions: read-out: percent of control
Protocol: as §1

[28] = biological target: PIK3CG (Homo sapiens (Human), UniProt P48736); conditions: read-out: percent of control
Protocol: as §1

[29] = biological target: FLT3 (D835H) (Homo sapiens (Human), UniProt P36888, D835H); conditions: read-out: percent of control
Protocol: as §1

[30] = biological target: LZK (Homo sapiens (Human), UniProt O43283); conditions: read-out: percent of control
Protocol: as §1

[31] = biological target: ERBB3 (Homo sapiens (Human), UniProt P21860); conditions: read-out: percent of control
Protocol: as §1

[32] = biological target: FGFR2 (Homo sapiens (Human), UniProt P21802); conditions: read-out: percent of control
Protocol: as §1

[33] = biological target: RPS6KA4 (Kin.Dom.1-N-terminal) (Homo sapiens (Human), UniProt O75676); conditions: read-out: percent of control
Protocol: as §1

[34] = test system: FLT3 (ITD,D835V); conditions: 1 μM
Protocol: as §1

[35] = biological target: AURKB (Homo sapiens (Human), UniProt Q96GD4); conditions: read-out: percent of control
Protocol: as §1

[36] = biological target: CDKL1 (Homo sapiens (Human), UniProt Q00532); conditions: read-out: percent of control
Protocol: as §1

[37] = biological target: CDKL5 (Homo sapiens (Human), UniProt O76039); conditions: read-out: percent of control
Protocol: as §1

[38] = biological target: CSNK1A1 (Homo sapiens (Human), UniProt P48729); conditions: read-out: percent of control
Protocol: as §1

Sequence of PRKG1 (Q13976 whole entry): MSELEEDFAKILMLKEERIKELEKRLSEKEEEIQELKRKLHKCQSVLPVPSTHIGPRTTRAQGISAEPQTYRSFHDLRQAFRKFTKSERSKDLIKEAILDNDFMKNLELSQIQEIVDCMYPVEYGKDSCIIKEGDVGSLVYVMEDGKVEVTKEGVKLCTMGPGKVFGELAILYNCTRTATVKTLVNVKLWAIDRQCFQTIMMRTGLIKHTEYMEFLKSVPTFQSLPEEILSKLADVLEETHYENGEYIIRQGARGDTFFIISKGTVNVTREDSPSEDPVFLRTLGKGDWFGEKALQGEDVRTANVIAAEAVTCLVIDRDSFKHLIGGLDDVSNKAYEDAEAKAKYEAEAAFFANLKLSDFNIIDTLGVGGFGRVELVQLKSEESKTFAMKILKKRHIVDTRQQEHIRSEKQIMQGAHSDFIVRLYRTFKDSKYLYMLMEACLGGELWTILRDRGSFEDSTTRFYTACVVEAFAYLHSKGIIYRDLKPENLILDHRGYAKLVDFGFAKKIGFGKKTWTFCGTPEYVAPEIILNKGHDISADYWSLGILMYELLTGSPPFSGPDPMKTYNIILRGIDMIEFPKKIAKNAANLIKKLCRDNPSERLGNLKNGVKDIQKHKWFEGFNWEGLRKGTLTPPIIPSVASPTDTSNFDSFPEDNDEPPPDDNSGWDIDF
Sequence of EPHB6 (O15197 32-1021): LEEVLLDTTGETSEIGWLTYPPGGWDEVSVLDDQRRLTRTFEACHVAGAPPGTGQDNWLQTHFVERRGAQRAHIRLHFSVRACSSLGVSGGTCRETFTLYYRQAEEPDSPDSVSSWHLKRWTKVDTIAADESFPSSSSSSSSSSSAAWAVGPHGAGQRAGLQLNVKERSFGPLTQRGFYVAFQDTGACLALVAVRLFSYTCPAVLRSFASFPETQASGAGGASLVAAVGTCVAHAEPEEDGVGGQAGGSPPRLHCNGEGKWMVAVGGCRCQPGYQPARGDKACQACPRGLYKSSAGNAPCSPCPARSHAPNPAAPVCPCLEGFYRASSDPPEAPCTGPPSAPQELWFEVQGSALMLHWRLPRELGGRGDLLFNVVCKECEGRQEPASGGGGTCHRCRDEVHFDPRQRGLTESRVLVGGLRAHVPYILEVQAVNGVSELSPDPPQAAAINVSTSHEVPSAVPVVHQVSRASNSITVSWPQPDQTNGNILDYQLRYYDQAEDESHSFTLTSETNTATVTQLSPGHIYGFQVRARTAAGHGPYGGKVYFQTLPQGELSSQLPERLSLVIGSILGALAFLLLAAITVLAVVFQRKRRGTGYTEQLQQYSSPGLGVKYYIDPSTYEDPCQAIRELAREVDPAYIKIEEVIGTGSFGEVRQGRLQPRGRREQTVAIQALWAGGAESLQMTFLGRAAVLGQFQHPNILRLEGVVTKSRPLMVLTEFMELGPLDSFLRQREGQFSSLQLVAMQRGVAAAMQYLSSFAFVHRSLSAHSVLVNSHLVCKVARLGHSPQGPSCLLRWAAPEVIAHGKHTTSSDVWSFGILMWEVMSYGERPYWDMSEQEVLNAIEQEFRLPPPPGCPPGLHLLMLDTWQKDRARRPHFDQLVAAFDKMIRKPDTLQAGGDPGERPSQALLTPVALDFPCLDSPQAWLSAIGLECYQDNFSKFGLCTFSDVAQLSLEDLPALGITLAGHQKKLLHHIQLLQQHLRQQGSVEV
Sequence of LZK (O43283 whole entry): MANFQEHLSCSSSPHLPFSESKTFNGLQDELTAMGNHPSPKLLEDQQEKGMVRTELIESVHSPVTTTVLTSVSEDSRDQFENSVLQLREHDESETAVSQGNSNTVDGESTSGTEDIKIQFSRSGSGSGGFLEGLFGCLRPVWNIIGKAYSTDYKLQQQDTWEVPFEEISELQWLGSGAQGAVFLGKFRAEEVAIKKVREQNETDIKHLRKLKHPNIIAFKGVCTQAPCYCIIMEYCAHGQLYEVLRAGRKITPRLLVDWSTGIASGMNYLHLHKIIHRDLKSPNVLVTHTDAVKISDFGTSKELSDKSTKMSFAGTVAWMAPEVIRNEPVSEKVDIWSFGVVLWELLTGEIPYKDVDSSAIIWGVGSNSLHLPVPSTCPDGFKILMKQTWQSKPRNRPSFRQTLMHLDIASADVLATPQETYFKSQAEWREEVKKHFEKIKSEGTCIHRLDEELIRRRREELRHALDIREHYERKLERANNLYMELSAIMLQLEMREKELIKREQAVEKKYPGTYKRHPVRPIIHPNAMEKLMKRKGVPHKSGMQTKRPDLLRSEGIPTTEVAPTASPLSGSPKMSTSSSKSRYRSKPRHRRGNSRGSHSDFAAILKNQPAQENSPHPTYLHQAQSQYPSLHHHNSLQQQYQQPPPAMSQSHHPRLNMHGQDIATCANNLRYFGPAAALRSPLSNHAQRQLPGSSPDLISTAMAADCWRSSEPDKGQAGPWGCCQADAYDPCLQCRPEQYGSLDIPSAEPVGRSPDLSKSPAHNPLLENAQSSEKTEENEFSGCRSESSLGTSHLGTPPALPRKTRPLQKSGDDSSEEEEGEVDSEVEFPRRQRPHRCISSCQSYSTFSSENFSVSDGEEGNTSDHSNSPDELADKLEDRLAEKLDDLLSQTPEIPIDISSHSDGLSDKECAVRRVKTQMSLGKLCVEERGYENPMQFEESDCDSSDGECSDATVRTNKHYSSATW
Sequence of IRAK1 (P51617 whole entry): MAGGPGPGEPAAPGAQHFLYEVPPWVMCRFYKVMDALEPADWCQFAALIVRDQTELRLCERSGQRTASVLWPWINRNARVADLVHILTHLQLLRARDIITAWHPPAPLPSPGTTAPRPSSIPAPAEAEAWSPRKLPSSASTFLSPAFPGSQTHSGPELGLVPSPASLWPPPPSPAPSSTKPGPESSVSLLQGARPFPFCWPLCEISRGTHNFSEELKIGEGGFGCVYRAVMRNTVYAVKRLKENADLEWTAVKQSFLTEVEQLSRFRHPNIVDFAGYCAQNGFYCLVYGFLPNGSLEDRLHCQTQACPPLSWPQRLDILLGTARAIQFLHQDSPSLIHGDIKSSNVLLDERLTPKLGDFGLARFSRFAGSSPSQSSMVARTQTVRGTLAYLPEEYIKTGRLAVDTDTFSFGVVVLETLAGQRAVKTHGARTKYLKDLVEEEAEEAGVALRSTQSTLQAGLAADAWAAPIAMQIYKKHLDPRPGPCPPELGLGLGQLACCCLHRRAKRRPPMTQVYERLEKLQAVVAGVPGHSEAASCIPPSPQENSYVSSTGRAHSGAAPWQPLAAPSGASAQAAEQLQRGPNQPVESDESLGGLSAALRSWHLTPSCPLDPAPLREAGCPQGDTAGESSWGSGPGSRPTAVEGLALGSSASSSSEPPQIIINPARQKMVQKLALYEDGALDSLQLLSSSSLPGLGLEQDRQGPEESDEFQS
Sequence of CDKL5 (O76039 whole entry): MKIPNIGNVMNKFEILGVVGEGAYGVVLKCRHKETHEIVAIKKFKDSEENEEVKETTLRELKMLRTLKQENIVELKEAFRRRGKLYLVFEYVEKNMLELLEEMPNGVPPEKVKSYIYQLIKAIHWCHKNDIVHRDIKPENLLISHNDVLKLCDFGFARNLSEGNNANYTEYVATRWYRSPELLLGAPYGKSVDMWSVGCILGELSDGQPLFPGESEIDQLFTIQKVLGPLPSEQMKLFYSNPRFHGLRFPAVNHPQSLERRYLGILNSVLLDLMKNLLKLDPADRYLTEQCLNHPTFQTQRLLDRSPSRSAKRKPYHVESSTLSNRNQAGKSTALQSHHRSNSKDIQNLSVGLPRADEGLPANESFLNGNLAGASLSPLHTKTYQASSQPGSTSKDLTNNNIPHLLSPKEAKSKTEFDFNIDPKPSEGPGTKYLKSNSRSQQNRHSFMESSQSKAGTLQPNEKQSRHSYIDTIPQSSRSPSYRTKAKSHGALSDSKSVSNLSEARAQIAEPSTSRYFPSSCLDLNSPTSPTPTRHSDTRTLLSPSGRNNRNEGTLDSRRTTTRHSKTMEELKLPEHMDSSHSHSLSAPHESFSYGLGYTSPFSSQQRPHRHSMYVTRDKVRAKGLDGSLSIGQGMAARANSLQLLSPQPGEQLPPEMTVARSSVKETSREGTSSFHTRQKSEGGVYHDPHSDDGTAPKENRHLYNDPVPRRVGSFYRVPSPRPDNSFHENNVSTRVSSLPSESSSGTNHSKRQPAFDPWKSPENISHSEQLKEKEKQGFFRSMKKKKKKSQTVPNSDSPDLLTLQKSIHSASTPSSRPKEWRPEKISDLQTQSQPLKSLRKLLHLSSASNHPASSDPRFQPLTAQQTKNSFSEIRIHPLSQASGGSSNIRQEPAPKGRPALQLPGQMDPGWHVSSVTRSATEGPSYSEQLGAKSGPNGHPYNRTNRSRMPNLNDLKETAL
Sequence of RPS6KA4 (Kin.Dom.1-N-terminal) (O75676 33-301): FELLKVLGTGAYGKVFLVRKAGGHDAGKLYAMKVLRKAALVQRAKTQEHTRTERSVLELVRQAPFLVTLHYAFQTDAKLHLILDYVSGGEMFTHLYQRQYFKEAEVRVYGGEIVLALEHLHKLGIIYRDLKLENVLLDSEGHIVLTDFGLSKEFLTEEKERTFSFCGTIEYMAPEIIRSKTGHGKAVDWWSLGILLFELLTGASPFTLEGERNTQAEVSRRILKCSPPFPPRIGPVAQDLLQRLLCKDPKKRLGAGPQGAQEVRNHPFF
Sequence of CSNK1E (P49674 whole entry): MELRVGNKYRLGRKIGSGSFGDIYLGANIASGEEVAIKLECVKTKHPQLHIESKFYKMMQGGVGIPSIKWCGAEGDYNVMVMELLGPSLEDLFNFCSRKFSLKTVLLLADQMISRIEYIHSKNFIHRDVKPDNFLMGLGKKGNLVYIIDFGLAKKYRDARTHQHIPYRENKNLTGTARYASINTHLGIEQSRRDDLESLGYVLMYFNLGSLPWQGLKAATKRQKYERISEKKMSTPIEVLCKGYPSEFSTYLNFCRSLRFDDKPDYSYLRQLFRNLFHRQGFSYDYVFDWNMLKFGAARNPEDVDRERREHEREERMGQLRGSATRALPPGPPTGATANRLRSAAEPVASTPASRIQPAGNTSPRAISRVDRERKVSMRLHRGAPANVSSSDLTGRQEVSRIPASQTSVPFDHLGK

For `CCN1CCN(Cc2cc(NC(=O)c3ccc(C)c(-c4ccc5nc(NC(=O)C6CC6)cn5c4)c3)cc(C(F)(F)F)c2)CC1` [Compound I-6, 3-(2-(cyclopropanecarboxamido)imidazo[1,2-a]pyridin-6-yl)-N-(3-((4-ethylpiperazin-1-yl)methyl)-5-(trifluoromethyl)phenyl)-4-methylbenzamide], the remaining binding at 1 µM [1] was 19%, the remaining binding at 1 µM [2] was 93% and the remaining binding at 1 µM [3] was 29%. It also gave a remaining binding at 1 µM [4] of 96%, a remaining binding at 1 µM [5] of 33% and a remaining binding at 1 µM [6] of 0%. The remaining binding at 1 µM [7] was 0%, the remaining binding at 1 µM [8] was 0% and the remaining binding at 1 µM [9] was 91%. It also gave a remaining binding at 1 µM [10] of 0.25%, a remaining binding at 1 µM [11] of 85% and a remaining binding at 1 µM [12] of 3.2%. For the same compound, the remaining binding at 1 µM [13] was 91%, the remaining binding at 1 µM [14] was 1% and the remaining binding at 1 µM [15] was 87%. The remaining binding at 1 µM [16] was 96%, the remaining binding at 1 µM [17] was 93% and the remaining binding at 1 µM [18] was 100%. It also gave a remaining binding at 1 µM [19] of 64%, a remaining binding at 1 µM [20] of 93% and a remaining binding at 1 µM [21] of 100%. The remaining binding at 1 µM [22] was 97%, the remaining binding at 1 µM [23] was 100% and the remaining binding at 1 µM [24] was 20%. The remaining binding at 1 µM [25] was 92%, the remaining binding at 1 µM [26] was 90% and the remaining binding at 1 µM [27] was 100%. The remaining binding at 1 µM [28] was 92%, the remaining binding at 1 µM [29] was 2% and the remaining binding at 1 µM [30] was 100%. It also gave a remaining binding at 1 µM [31] of 93%, a remaining binding at 1 µM [32] of 57% and a remaining binding at 1 µM [33] of 66%. The percent of control [34] was 76%, the remaining binding at 1 µM [35] was 80% and the remaining binding at 1 µM [36] was 77%. For the same compound, the remaining binding at 1 µM [37] was 100% and the remaining binding at 1 µM [38] was 100%.

For `CCN1CCN(Cc2cc(NC(=O)c3ccc(C)c(-c4ccc5nc(NC(=O)C6CC6)cn5n4)c3)cc(C(F)(F)F)c2)CC1` [Compound I-2, 3-(2-(cyclopropanecarboxamido)imidazo[1,2-b]pyridazin-6-yl)-N-(3-((4-ethylpiperazin-1-yl)methyl)-5-(trifluoromethyl)phenyl)-4-methylbenzamide], the remaining binding at 1 µM [1] was 3.4%, the remaining binding at 1 µM [2] was 99% and the remaining binding at 1 µM [3] was 18%. For the same compound, the remaining binding at 1 µM [4] was 100%, the remaining binding at 1 µM [5] was 44% and the remaining binding at 1 µM [6] was 0.4%. For the same compound, the remaining binding at 1 µM [7] was 1.3%, the remaining binding at 1 µM [8] was 0% and the remaining binding at 1 µM [9] was 78%. The remaining binding at 1 µM [10] was 0.1%, the remaining binding at 1 µM [11] was 100% and the remaining binding at 1 µM [12] was 0.7%. For the same compound, the remaining binding at 1 µM [13] was 78%, the remaining binding at 1 µM [14] was 0.55% and the remaining binding at 1 µM [15] was 100%. The remaining binding at 1 µM [16] was 78%, the remaining binding at 1 µM [17] was 74% and the remaining binding at 1 µM [18] was 100%. It also gave a remaining binding at 1 µM [19] of 78%, a remaining binding at 1 µM [20] of 86% and a remaining binding at 1 µM [21] of 100%. The remaining binding at 1 µM [22] was 49%, the remaining binding at 1 µM [23] was 100% and the remaining binding at 1 µM [24] was 19%. It also gave a remaining binding at 1 µM [25] of 82%, a remaining binding at 1 µM [26] of 99% and a remaining binding at 1 µM [27] of 100%. For the same compound, the remaining binding at 1 µM [28] was 99%, the remaining binding at 1 µM [29] was 2.2% and the remaining binding at 1 µM [30] was 48%. The remaining binding at 1 µM [31] was 100%, the remaining binding at 1 µM [32] was 67% and the remaining binding at 1 µM [33] was 50%. The percent of control [34] was 61%, the remaining binding at 1 µM [35] was 97% and the remaining binding at 1 µM [36] was 40%. For the same compound, the remaining binding at 1 µM [37] was 95% and the remaining binding at 1 µM [38] was 73%.

Reference: patent US20230391768A2, “IMIDAZOPYRIDINE DERIVATIVES AND AZA-IMIDAZOPYRIDINE DERIVATIVES AS JANUS KINASE 2 INHIBITORS AND USES THEREOF” (Dana-Farber Cancer Institute, Inc., priority 2018, published 2023)
